Reference: patent US4879311A, “Derivatives of benzoyloxyacetic acid, and preparation and formulations thereof for therapeutic use” (Inverni della Beffa S.p.A., priority 1987, dated 1989)
Values joined by “and” are separate entries in the source; they are usually repeats but may differ in a detail not shown here. Identical values can stand only once. “Also recorded” adds a separate entry of the source. Counter-ions that a name gives are not always drawn. Like-named read-outs stand apart in the source and are kept apart here.

What was measured:
[1] = system: 6-day old air pouch irritated by carrageenan; assay: irritation of 6-day old air pouch by carrageenan in the rat; format: in vivo
Protocol: (2) Irritation of 6-day old air pouch by carrageenan in the rat (A. D. Sedgwick, Y. M. Sin, A. R. Mackay, A. Al-Duaij and D. A. Willoughby; J. Pharm. Pharmacol.; 36, 171, 1984).
The formation of a dorsal pouch was induced in the rat by dorsal subcutaneous administration of 20 ml of air. 10 ml of air were then injected every day for three consecutive days in order to keep the cavity permeable. Six days after the first injection of air, the dorsal pouch in the animals was treated with 1 ml of 1% carrageenan in physiological solution.
Compound Ib was administered by gastric probe, 24 hours and 1 hour before administration of the irritating agent.
The animals, dividedinto groups of five, were killed 4 hours and 24 hours after the carrageenan. The volume of the exudate and the total number of leucocytes were measured.

[2] = system: carrageenin oedema; assay: carrageenin oedema test in the rat, oral administration; format: in vivo; settings: for % change of increase of original volume, 1 h / % change of increase of original volume, 2 h / % change of increase of original volume, 3 h / % change of increase of original volume, 4 h / % change of increase of original volume, 5 h: vs controls
Protocol: (§1) The anti-inflammatory and analgesic activity of compound Ib was tested after oral administration in the carrageenin oedema test in the rat (C. A. Winter et al. Proc. Soc. Exp. Biol. Med., 111, 544, 1962), in the phenylquinone writhing test (I. C. Hendershot and J. J. Forsaith, Pharmacol. Exp. Ther., 125, 237, 1959) and in the hot plate test on the mouse (N. B. Eddy and D. J. Leimbach, J. Pharmacol. Exp. Ther., 107, 385, 1953). The activity of the compound was compared with equimolecular doses of sodium meclofenamate. A comparison was also made between the acute toxicity of the two substances by measuring the oral LD 50 on the rat.
The substances under test, dissolved in distilled water, were administered by a stomach probe 1 hour before subplantar injection of carrageenin (1% in sterile 0.9% NaCl aqueous solution). […]

[3] = system: writhing induced by phenylquinone; assay: phenylquinone writhing test, oral administration; format: in vivo, mouse
Protocol: as §1
The substances under test were administered by a stomach probe 1 hour before intraperitoneal injection of phenylquinone (2 mg/kg). The abdominal contractions of the treated animals and the controls were counted during every 10 minutes for half an hour.

[4] = system: reaction time to heat (hot plate); format: in vivo, mouse; settings: oral; for Percentages of mice protected at 30 minutes / Percentages of mice protected at 60 minutes: reaction time 15 seconds or more, 55° C.
Protocol: as §1
The substances under test were administered by a stomach probe to preselected mice. The controls and the treated animals were placed on the hot plate (55° C.) one at a time immediately after treatment. The reaction time to heat, was measured 30 and 60 minutes after treatment. Animals were considered protected when the reaction time was 15 seconds or more.

[5] = system: arachidonic acid oedema; assay: arachidonic acid oedema in the rat, oral administration; format: in vivo; settings: for change of Increase of Original Volume (in parentheses), 60 min: vs controls
Protocol: (1) Arachidonic acid oedema in the rat (M. J. Di Martino, G. C. Campbell Jnr., C. E. Wolff and N. Hanna, Agents and Actions; 21, 303, 1987)
Compound Ib was administered by gastric probe one hour before subplantar injection of 0.1 ml of 0.5% arachidonic acid in carbonate buffer (pH 8-8.2).
The volume of the paws of the treated animals and of the control was measured with a plethysmometer immediately and 60 minutes after the irritating agent (peak time of oedema).

[6] = acute toxicity on the rat, oral LD50; format: in vivo; settings: rat, in vivo, po
Protocol: as §1
(§2) The two LD 50 values were calculated by the probit method.

[7] = system: rat; assay: acute toxicity on the rat, oral LD50; format: in vivo
Protocol: as §1, §2

[8] = pH of aqueous solution; format: physicochemical
[9] = os, Ib 31.75 mg/kg × 2 (**P < 0.01), sodium meclofenamate 27.5 mg/kg × 2 (*P < 0.05 vs controls), 24 h
[10] = os, Ib 31.75 mg/kg × 2, sodium meclofenamate 27.5 mg/kg × 2, 4 h, vs controls
[11] = os, Ib 31.75 mg/kg × 2, sodium meclofenamate 27.5 mg/kg × 2, 24 h, vs controls
[12] = rat, oral, dose corresponding to 10 mg/kg meclofenamic acid (Ib 12.7 mg/kg; sodium meclofenamate 11.0 mg/kg)
[13] = rat, oral, dose corresponding to 10 mg/kg meclofenamic acid
[14] = rat, oral, dose corresponding to 20 mg/kg meclofenamic acid (Ib 25,4 mg/kg; sodium meclofenamate 22,0 mg/kg), **P < 0.01 vs controls
[15] = rat, oral, dose corresponding to 20 mg/kg meclofenamic acid
[16] = oral, Ib 12.7 mg/kg, sodium meclofenamate 11.0 mg/kg
[17] = oral, Ib 25.4 mg/kg, sodium meclofenamate 22.0 mg/kg
[18] = oral, dose corresponding to 10 mg/kg meclofenamic acid (Ib 12.7 mg/kg; sodium meclofenamate 11.0 mg/kg)
[19] = oral, dose corresponding to 10 mg/kg meclofenamic acid (Ib 12.7 mg/kg; sodium meclofenamate 11.0 mg/kg), **P < 0.01 vs controls
[20] = oral, dose corresponding to 20 mg/kg meclofenamic acid (Ib 25.4 mg/kg; sodium meclofenamate 22.0 mg/kg), **P < 0.01 vs controls
[21] = Ib 12.7 mg/kg, sodium meclofenamate 11 mg/kg
[22] = Ib 25.4 mg/kg, sodium meclofenamate 22 mg/kg

Cc1ccc(Cl)c(Nc2ccccc2C(=O)OCC(=O)O)c1Cl [Ib, sodium salt (Ib) of 2-[(2,6-dichloro-3-methylphenyl)-amino]benzoyloxyacetic acid]
Leucocytes (m ± s.e.), 24 h [1, 9]: 16.08 ± 6.85 × 10^6 | Volume of exudate (m ± s.e.), 24 h [1, 9]: 0.26 ± 0.06 mL | Leucocytes (m ± s.e.), 4 h ([1]; os, Ib 31.75 mg/kg × 2 (*P < 0.05 vs controls), sodium meclofenamate 27.5 mg/kg × 2, 4 h): 1.08 ± 0.19 × 10^6 | change of leucocytes (in parentheses), 4 h [1, 10]: -76 | change of volume of exudate (in parentheses), 4 h [1, 10]: -25 | change of leucocytes (in parentheses), 24 h [1, 11]: -81 | change of volume of exudate (in parentheses), 24 h [1, 11]: -71 | Volume of exudate (m ± s.e.), 4 h ([1]; os, dose corresponding to 25 mg/kg meclofenamic acid × 2 (Ib 31.75; sodium meclofenamate 27.5 mg/kg), 4 h): 0.24 ± 0.02 mL | activity relative to the reference compound in inhibiting volume of exudate and total content of leucocytes ([1]; rat, oral, equimolar doses (in meclofenamic acid)): about twice as active as the reference compound | significance of Ib vs. sodium meclofenamate ([2]; Duncan test): Not significant | Increase of original volume (m ± s.e.), 1 h [2, 12]: 0.44 ± 0.3 mL | Increase of original volume (m ± s.e.), 2 h [2, 12]: 0.81 ± 0.07 mL | Increase of original volume (m ± s.e.), 3 h [2, 12]: 1.23 ± 0.06 mL | Increase of original volume (m ± s.e.), 4 h [2, 12]: 1.39 ± 0.06 mL | Increase of original volume (m ± s.e.), 5 h [2, 12]: 1.10 ± 0.08 mL | % change of increase of original volume, 1 h [2, 13]: -6% | % change of increase of original volume, 2 h [2, 13]: -15% | % change of increase of original volume, 3 h [2, 13]: -20% | % change of increase of original volume, 4 h [2, 13]: -8% | % change of increase of original volume, 5 h [2, 13]: -10% | Increase of original volume (m ± s.e.), 1 h ([2]; rat, oral, dose corresponding to 20 mg/kg meclofenamic acid (Ib 25,4 mg/kg; sodium meclofenamate 22,0 mg/kg)): 0.35 ± 0.05 mL | Increase of original volume (m ± s.e.), 2 h ([2]; rat, oral, dose corresponding to 20 mg/kg meclofenamic acid (Ib 25,4 mg/kg; sodium meclofenamate 22,0 mg/kg), *P < 0.05): 0.62 ± 0.07 mL | Increase of original volume (m ± s.e.), 3 h [2, 14]: 0.78 ± 0.07 mL | Increase of original volume (m ± s.e.), 4 h [2, 14]: 1.11 ± 0.08 mL | Increase of original volume (m ± s.e.), 5 h [2, 14]: 1.22 ± 0.08 mL | % change of increase of original volume, 1 h [2, 15]: -22% | % change of increase of original volume, 2 h [2, 15]: -35% | % change of increase of original volume, 3 h [2, 15]: -42% | % change of increase of original volume, 4 h [2, 15]: -31% | % change of increase of original volume, 5 h [2, 15]: -26% | anti-inflammatory activity compared with reference (in words) ([2]; rat, oral, vs sodium meclofenamate): had the anti-inflammatory and analgesic properties of the reference compound; also recorded: behaved in similar manner | minimal effective dose ([2]; rat, oral, read-out: dose at which antagonism of the oedema is statistically significant): 68 µmol/kg | significance of Ib vs. sodium meclofenamate ([3]; Duncan test): Not significant | % Protection, 0-10 minutes [3, 16]: 41% | % Protection, 10-20 minutes [3, 16]: 19% | % Protection, 20-30 minutes [3, 16]: 31% | % Protection, total [3, 16]: 31% | % Protection, 0-10 minutes [3, 17]: 54% | % Protection, 10-20 minutes [3, 17]: 41% | % Protection, 20-30 minutes [3, 17]: 50% | % Protection, total [3, 17]: 48% | Writhing (m ± s.e.) during 10-20 minutes [3, 18]: 16.6 ± 1.5 | Writhing (m ± s.e.) during 20-30 minutes [3, 18]: 9.8 ± 1.0 | Writhing (m ± s.e.) during 0-10 minutes [3, 19]: 14.8 ± 2.9 | Writhing (m ± s.e.), total minutes [3, 19]: 41.2 ± 4.1 | Writhing (m ± s.e.) during 10-20 minutes ([3]; oral, dose corresponding to 20 mg/kg meclofenamic acid (Ib 25.4 mg/kg; sodium meclofenamate 22.0 mg/kg)): 12.1 ± 2.3 | Writhing (m ± s.e.) during 0-10 minutes [3, 20]: 11.6 ± 2.5 | Writhing (m ± s.e.) during 20-30 minutes [3, 20]: 7.2 ± 1.4 | Writhing (m ± s.e.), total minutes [3, 20]: 30.9 ± 5.8 | analgesic activity compared with reference (in words) ([3]; oral, vs sodium meclofenamate, both doses): had the anti-inflammatory and analgesic properties of the reference compound; also recorded: comparable with that of sodium meclofenamate | activity in the hot plate test (in words) ([4]; mouse): some activity; also recorded: slight analgesic activity after 30 minutes | Percentages of mice protected at 30 minutes [4, 21]: 0% | Percentages of mice protected at 60 minutes [4, 21]: 0% | Percentages of mice protected at 30 minutes [4, 22]: 20% | Percentages of mice protected at 60 minutes [4, 22]: 0% | change of Increase of Original Volume (in parentheses), 60 min [5, 21]: -15 | change of Increase of Original Volume (in parentheses), 60 min ([5]; Ib 38.1 mg/kg, sodium meclofenamate 33 mg/kg): -40 | Increase of Original Volume (m ± s.e.), 60 min ([5]; dose corresponding to 10 mg/kg meclofenamic acid (Ib 12.7 mg/kg; sodium meclofenamate 11 mg/kg)): 0.53 ± 0.04 | Increase of Original Volume (m ± s.e.), 60 min ([5]; dose corresponding to 30 mg/kg meclofenamic acid (Ib 38.1 mg/kg, **P < 0.01; sodium meclofenamate 33 mg/kg, *P < 0.05 vs controls)): 0.37 ± 0.05 | activity relative to sodium meclofenamate ([5]; rat): about twice as active as sodium meclofenamate | statistically significant dose as fraction of the LD50 ([5]; rat, oedema reduced in statistically significant manner): 1/7 | LD50 at 480 h ([6]; male and female rats, 20 days of observation, probit method, read-out: DL50): 271 mg/kg | LD50 at 480 h ([6]; mg/kg meclofenamic acid, read-out: LD50 as corresponding meclofenamic acid): 213 mg/kg | PR ([7]; oral LD50, Ib and sodium meclofenamate, rat): 1.935 (1.191-3.586) | Slope ([7]; oral LD50, probit method): 2.553 ± 0.6302 | acute toxicity compared with sodium meclofenamate (in words) ([7]; rat, oral LD50): less toxic than sodium meclofenamate, to a statistically significant extent | pH in 1% aqueous solution ([8]; 1% aqueous solution): 6.9 and 7.1 | pH of aqueous solution (in words) ([8]; 1% aqueous solution (Ib)): practically neutral pH
